Experimental data from publication PMC13428274 (ACS infectious diseases, 2025).

Biological target: BlaR (Staphylococcus aureus, UniProt P18357)
Assay: SPR steady-state fit, immobilized sensor domain
Assay type: binding

Sequence of BlaR (P18357 332-585): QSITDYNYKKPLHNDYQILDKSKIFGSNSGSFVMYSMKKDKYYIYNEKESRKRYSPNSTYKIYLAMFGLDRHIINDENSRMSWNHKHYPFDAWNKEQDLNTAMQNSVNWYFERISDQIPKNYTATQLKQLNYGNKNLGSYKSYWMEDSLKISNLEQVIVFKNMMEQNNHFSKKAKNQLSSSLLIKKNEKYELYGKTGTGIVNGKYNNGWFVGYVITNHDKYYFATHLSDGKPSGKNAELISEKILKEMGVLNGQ

Cn1ncc2c(Nc3ccc(Br)cc3)nc(Nc3ccc(Br)cc3)nc21 [compound 1, N^4,N^6-bis(4-bromophenyl)-1-methyl-1H-pyrazolo[3,4-d]pyrimidine-4,6-diamine]
Kd: 31 ± 2 µM
